Species: Rattus norvegicus
Experiment: Open TG-GATES - Regimen: Single
Type: toxicity, organism-based, Sprague-Dawley
Parameters: regimen Single, gender Male, age 6 weeks
Conditions: in vivo, po, route gavage; for APTT / Bas / Eos / Fbg / Hb / Ht / Lym / MCH / MCHC / MCV / Mono / Neu / PT / Plat / RBC / Ret / WBC: tissue Blood; for KIDNEY_L / KIDNEY_R / KIDNEY_TOTAL: tissue Kidney; for LIVER: tissue Liver; for A/G / ALP / ALT / AST / BUN / CRE / Ca / Cl / DBIL / GLC / IP / K / LDH / Na / PL / RALB / TBIL / TC / TG / TP / gamma-GTP: tissue Plasma
[1] = 3 mg/kg, 3 h, dose level Middle
[2] = 3 mg/kg, 6 h, dose level Middle
[3] = 3 mg/kg, 9 h, dose level Middle
[4] = 3 mg/kg, 24 h, dose level Middle
[5] = 10 mg/kg, 24 h, dose level High

## CN1C(C(=O)Nc2ccccn2)=C(O)c2sc(Cl)cc2S1(=O)=O [LORNOXICAM]
[1]
  TERMINAL_BW: 224.5 g
  APTT: 20.3 s
  Bas: 0.6%
  Eos: 1%
  Fbg: 223.8 mg/dL
  Hb: 13.2 g/dL
  Ht: 40%
  Lym: 75.2%
  MCH: 21 pg
  MCHC: 32.9%
  MCV: 63.8 fL
  Mono: 3.4%
  Neu: 19.6%
  PT: 11.7 s
  Plat: 123.9 x10_4/uL
  RBC: 626.4 x10_4/ul
  Ret: 7.2%
  WBC: 135.4 x10_2/uL
  KIDNEY_L: 1 g
  KIDNEY_R: 1 g
  KIDNEY_TOTAL: 2 g
  LIVER: 10.3 g
  A/G: 1.6
  ALP: 1026.6 IU/L
  ALT: 45.4 IU/L
  AST: 81 IU/L
  BUN: 12.4 mg/dL
  CRE: 0.3 mg/dL
  Ca: 10.8 mg/dL
  Cl: 104 meq/L
  DBIL: 0.074 mg/dL
  GLC: 197 mg/dL
  IP: 9 mg/dL
  K: 4.1 meq/L
  LDH: 163.8 IU/L
  Na: 141.8 meq/L
  PL: 152.8 mg/dL
  RALB: 3.5 g/dL
  TBIL: 0.1 mg/dL
  TC: 82.4 mg/dL
  TG: 73.8 mg/dL
  TP: 5.7 g/dL
  gamma-GTP: 1 IU/L
[2]
  TERMINAL_BW: 222.9 g
  APTT: 18.9 s
  Bas: 0.6%
  Eos: 0.8%
  Fbg: 223.6 mg/dL
  Hb: 13.4 g/dL
  Ht: 40.2%
  Lym: 78.4%
  MCH: 21.3 pg
  MCHC: 33.4%
  MCV: 63.7 fL
  Mono: 3.4%
  Neu: 16.8%
  PT: 12.3 s
  Plat: 123.6 x10_4/uL
  RBC: 631.2 x10_4/ul
  Ret: 7.2%
  WBC: 108.8 x10_2/uL
  KIDNEY_L: 1 g
  KIDNEY_R: 1 g
  KIDNEY_TOTAL: 1.9 g
  LIVER: 10 g
  A/G: 1.7
  ALP: 948.8 IU/L
  ALT: 38.2 IU/L
  AST: 72.8 IU/L
  BUN: 11.8 mg/dL
  CRE: 0.4 mg/dL
  Ca: 10.6 mg/dL
  Cl: 104 meq/L
  DBIL: 0.074 mg/dL
  GLC: 193.6 mg/dL
  IP: 8.6 mg/dL
  K: 4.1 meq/L
  LDH: 159 IU/L
  Na: 140.6 meq/L
  PL: 134.8 mg/dL
  RALB: 3.5 g/dL
  TBIL: 0.2 mg/dL
  TC: 75 mg/dL
  TG: 64.4 mg/dL
  TP: 5.6 g/dL
  gamma-GTP: 0.8 IU/L
[3]
  TERMINAL_BW: 223.4 g
  APTT: 18.6 s
  Bas: 0.4%
  Eos: 0.8%
  Fbg: 220.2 mg/dL
  Hb: 13.2 g/dL
  Ht: 39.2%
  Lym: 71.2%
  MCH: 21.6 pg
  MCHC: 33.7%
  MCV: 64.1 fL
  Mono: 3.4%
  Neu: 24%
  PT: 12.2 s
  Plat: 120.6 x10_4/uL
  RBC: 611.6 x10_4/ul
  Ret: 6.8%
  WBC: 110.6 x10_2/uL
  KIDNEY_L: 1 g
  KIDNEY_R: 1 g
  KIDNEY_TOTAL: 2 g
  LIVER: 9.1 g
  A/G: 1.6
  ALP: 857.8 IU/L
  ALT: 41.2 IU/L
  AST: 69.8 IU/L
  BUN: 10.8 mg/dL
  CRE: 0.3 mg/dL
  Ca: 10.5 mg/dL
  Cl: 103.2 meq/L
  DBIL: 0.064 mg/dL
  GLC: 190 mg/dL
  IP: 9.7 mg/dL
  K: 4.1 meq/L
  LDH: 168.6 IU/L
  Na: 141.2 meq/L
  PL: 125.4 mg/dL
  RALB: 3.2 g/dL
  TBIL: 0.1 mg/dL
  TC: 66.2 mg/dL
  TG: 54.4 mg/dL
  TP: 5.3 g/dL
  gamma-GTP: 1 IU/L
[4]
  TERMINAL_BW: 235.4 g
  APTT: 20 s
  Bas: 0.2%
  Eos: 0.2%
  Fbg: 261.6 mg/dL
  Hb: 12.8 g/dL
  Ht: 39%
  Lym: 60.2%
  MCH: 20.8 pg
  MCHC: 32.9%
  MCV: 63.5 fL
  Mono: 3.8%
  Neu: 33.8%
  PT: 12.1 s
  Plat: 122.4 x10_4/uL
  RBC: 614.2 x10_4/ul
  Ret: 6.8%
  WBC: 136.9 x10_2/uL
  KIDNEY_L: 1 g
  KIDNEY_R: 1 g
  KIDNEY_TOTAL: 2.1 g
  LIVER: 11.4 g
  A/G: 1.5
  ALP: 892.2 IU/L
  ALT: 39.8 IU/L
  AST: 67.6 IU/L
  BUN: 13.2 mg/dL
  CRE: 0.4 mg/dL
  Ca: 10.5 mg/dL
  Cl: 104.8 meq/L
  DBIL: 0.078 mg/dL
  GLC: 203.8 mg/dL
  IP: 7.8 mg/dL
  K: 4.2 meq/L
  LDH: 207.8 IU/L
  Na: 141.8 meq/L
  PL: 133.2 mg/dL
  RALB: 3.1 g/dL
  TBIL: 0.1 mg/dL
  TC: 68.2 mg/dL
  TG: 74.4 mg/dL
  TP: 5.1 g/dL
  gamma-GTP: 0.8 IU/L
10 mg/kg, 3 h, dose level High
  TERMINAL_BW: 225.5 g
  APTT: 20.6 s
  Bas: 0.6%
  Eos: 1%
  Fbg: 212.8 mg/dL
  Hb: 13.3 g/dL
  Ht: 40.2%
  Lym: 76%
  MCH: 20.9 pg
  MCHC: 33.3%
  MCV: 63 fL
  Mono: 2.8%
  Neu: 19.2%
  PT: 11.8 s
  Plat: 112.2 x10_4/uL
  RBC: 638.8 x10_4/ul
  Ret: 7.5%
  WBC: 112.4 x10_2/uL
  KIDNEY_L: 1 g
  KIDNEY_R: 1 g
  KIDNEY_TOTAL: 1.9 g
  LIVER: 10.3 g
  A/G: 1.8
  ALP: 965.2 IU/L
  ALT: 42.2 IU/L
  AST: 79.2 IU/L
  BUN: 13.4 mg/dL
  CRE: 0.4 mg/dL
  Ca: 10.7 mg/dL
  Cl: 104.4 meq/L
  DBIL: 0.074 mg/dL
  GLC: 193.6 mg/dL
  IP: 9 mg/dL
  K: 4.1 meq/L
  LDH: 188.8 IU/L
  Na: 142.2 meq/L
  PL: 139.2 mg/dL
  RALB: 3.5 g/dL
  TBIL: 0.1 mg/dL
  TC: 76.8 mg/dL
  TG: 38.2 mg/dL
  TP: 5.5 g/dL
  gamma-GTP: 0.6 IU/L
10 mg/kg, 6 h, dose level High
  TERMINAL_BW: 223.7 g
  APTT: 19.5 s
  Bas: 0.6%
  Eos: 0.8%
  Fbg: 229.2 mg/dL
  Hb: 13.2 g/dL
  Ht: 39.3%
  Lym: 76.8%
  MCH: 20.5 pg
  MCHC: 33.6%
  MCV: 60.9 fL
  Mono: 2.8%
  Neu: 18.6%
  PT: 12.1 s
  Plat: 129.2 x10_4/uL
  RBC: 644.8 x10_4/ul
  Ret: 6.7%
  WBC: 96.3 x10_2/uL
  KIDNEY_L: 1 g
  KIDNEY_R: 1 g
  KIDNEY_TOTAL: 2 g
  LIVER: 9.6 g
  A/G: 1.6
  ALP: 989.2 IU/L
  ALT: 46.8 IU/L
  AST: 78.6 IU/L
  BUN: 12.8 mg/dL
  CRE: 0.3 mg/dL
  Ca: 10.5 mg/dL
  Cl: 104.8 meq/L
  DBIL: 0.072 mg/dL
  GLC: 196.2 mg/dL
  IP: 8.6 mg/dL
  K: 3.9 meq/L
  LDH: 219 IU/L
  Na: 141.8 meq/L
  PL: 137 mg/dL
  RALB: 3.5 g/dL
  TBIL: 0.1 mg/dL
  TC: 75.8 mg/dL
  TG: 56.4 mg/dL
  TP: 5.6 g/dL
  gamma-GTP: 1 IU/L
10 mg/kg, 9 h, dose level High
  TERMINAL_BW: 221.8 g
  APTT: 18.9 s
  Bas: 0.4%
  Eos: 0.8%
  Fbg: 215.6 mg/dL
  Hb: 13.2 g/dL
  Ht: 39.2%
  Lym: 63.6%
  MCH: 21.1 pg
  MCHC: 33.7%
  MCV: 62.6 fL
  Mono: 4.2%
  Neu: 30.6%
  PT: 12.5 s
  Plat: 113.4 x10_4/uL
  RBC: 627.4 x10_4/ul
  Ret: 7%
  WBC: 97.9 x10_2/uL
  KIDNEY_L: 1 g
  KIDNEY_R: 1 g
  KIDNEY_TOTAL: 2 g
  LIVER: 9.3 g
  A/G: 1.7
  ALP: 755.2 IU/L
  ALT: 35.6 IU/L
  AST: 69.8 IU/L
  BUN: 13.8 mg/dL
  CRE: 0.3 mg/dL
  Ca: 10.5 mg/dL
  Cl: 103.6 meq/L
  DBIL: 0.08 mg/dL
  GLC: 188 mg/dL
  IP: 9.1 mg/dL
  K: 4.1 meq/L
  LDH: 195.6 IU/L
  Na: 141.4 meq/L
  PL: 130.8 mg/dL
  RALB: 3.3 g/dL
  TBIL: 0.1 mg/dL
  TC: 67.6 mg/dL
  TG: 59.2 mg/dL
  TP: 5.3 g/dL
  gamma-GTP: 1.2 IU/L
[5]
  TERMINAL_BW: 236.6 g
  APTT: 21.2 s
  Bas: 0.2%
  Eos: 0.4%
  Fbg: 261 mg/dL
  Hb: 12.8 g/dL
  Ht: 38.5%
  Lym: 54%
  MCH: 20.9 pg
  MCHC: 33.2%
  MCV: 63.1 fL
  Mono: 4%
  Neu: 39.6%
  PT: 12 s
  Plat: 119.9 x10_4/uL
  RBC: 610.2 x10_4/ul
  Ret: 6.5%
  WBC: 162.1 x10_2/uL
  KIDNEY_L: 1.1 g
  KIDNEY_R: 1.1 g
  KIDNEY_TOTAL: 2.2 g
  LIVER: 11.6 g
  A/G: 1.5
  ALP: 949.2 IU/L
  ALT: 38.6 IU/L
  AST: 69.8 IU/L
  BUN: 13.4 mg/dL
  CRE: 0.4 mg/dL
  Ca: 10.4 mg/dL
  Cl: 105 meq/L
  DBIL: 0.1 mg/dL
  GLC: 203.6 mg/dL
  IP: 7.6 mg/dL
  K: 4.1 meq/L
  LDH: 214.2 IU/L
  Na: 141.4 meq/L
  PL: 148.2 mg/dL
  RALB: 3.1 g/dL
  TBIL: 0.2 mg/dL
  TC: 74.6 mg/dL
  TG: 108.8 mg/dL
  TP: 5.1 g/dL
  gamma-GTP: 1 IU/L
